What was measured:
tomato leaves = test: Hypersensitive response like symptoms on tomato leaves under sodium dithionite coated Whatman filter paper stickers; format: in vivo; conditions: tomato leaves (Pusa Rubi), stickers on adaxial surface for 3 hours, followed till 24 h
Protocol: To check whether sodium dithionite is able to induce plants innate immune response, square stickers from Whatman filter papers were coated with sodium dithionite under anoxic conditions (FIG. 4). These stickers were stacked on the adaxial surface of tomato leaves for 3 hours (FIG. 5). The variety of the tomato plant used for the purposes of present disclosure is Pusa Rubi accessed from Indian Agricultural Research Institute, New Delhi, India.

nitric oxide (NO) = format: in vivo, tomato
salicylic acid (SA) = test: Salicylic acid (SA) estimation in distal leaves; conditions: distal leaf samples, 6h post-sodium dithionite treatment, vs control plants
Protocol: Since salicylic acid (SA) is important in the induction of systemic acquired resistance in plants, the distal leaf samples were collected for SA estimation at 6h post-sodium dithionite treatment.

SMILES: O=S([O-])S(=O)[O-].[Na+].[Na+] [sodium dithionite]
- hypersensitive response like symptoms (tomato leaves): Hypersensitive response like symptoms started developing just after the treatment and was increased till 24 h
- NO levels (DAF-FM DA) after further treatment with avirulent Pseudomonas syringae (nitric oxide (NO); in vivo): Larger spots representing bursts of NO were observed
- NO production (DAF-FM DA) (nitric oxide (NO); tomato leaves treated with sodium dithionite strips alone): Increased microbursts of NO
- SA accumulation in distal leaves (salicylic acid (SA)): significant accumulation of SA

Reference: patent publication US20230404081A1, “A FORMULATION AND A METHOD FOR INDUCING DEFENSE RESPONSE IN PLANTS” (NATIONAL INSTITUTE OF PLANT GENOME RESEARCH, priority 2020, published 2023)
